The values below come from PMC6352943, “Novel pyrazolo[3,4-d]pyrimidines: design, synthesis, anticancer activity, dual EGFR/ErbB2 receptor tyrosine kinases inhibitory activity, effects on cell cycle profile and caspase-3-mediated apoptosis” (Journal of Enzyme Inhibition and Medicinal Chemistry, 2019).

Holding throughout (experiment): NCI 60 cell line single dose screen (SRB)
Holding throughout (format): cell-based

The test system of one experiment is RXF 393. The note with it: Homo sapiens; RXF 393 (renal cancer), single dose 10^−5 M, 48 h; read-out: Growth inhibition percentage. Summed up:
(§1)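 Cells were plated and grown 24 h at 37 °C, 5% CO2 before compound addition from DMSO stock, then exposed 48 h. Adherent cells were fixed with cold TCA (final 10%) and suspension cells with 16% TCA. SRB-stained protein was read at 515 nm and percent growth was calculated against time-zero and untreated plates.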

The test system of a further experiment is SF-268. The conditions noted are these: Homo sapiens; SF-268 (CNS cancer), single dose 10^−5 M, 48 h; read-out: Growth inhibition percentage. Summed up: as §1
The subject of another experiment is HT29. The note with it: Homo sapiens, HT-29; HT29 (colon cancer), single dose 10^−5 M, 48 h; read-out: Growth inhibition percentage. The essentials:
as §1

In the next experiment the test system is SW-620. The note with it: Homo sapiens; SW-620 (colon cancer), single dose 10^−5 M, 48 h; read-out: Growth inhibition percentage. The essentials:
as §1

The next experiment deals with NCI-H460. The note with it: Homo sapiens; NCI-H460 (non-small cell lung cancer), single dose 10^−5 M, 48 h; read-out: Growth inhibition percentage. Summed up:
as §1

A further experiment has as its system SR. The note with it: Homo sapiens; SR (leukemia), single dose 10^−5 M, 48 h; read-out: Growth inhibition percentage. The essentials: as §1
The subject of the next experiment is CCRF-CEM. The conditions noted are these: Homo sapiens; CCRF-CEM (leukemia), single dose 10^−5 M, 48 h; read-out: Growth inhibition percentage. Summed up:
as §1

Another experiment relates to NCI-H23. The note with it: Homo sapiens; NCI-H23 (non-small cell lung cancer), single dose 10^−5 M, 48 h; read-out: Growth inhibition percentage. The essentials: as §1
For the next experiment, the system named is ACHN. The conditions noted are these: Homo sapiens; ACHN (renal cancer), single dose 10^−5 M, 48 h; read-out: Growth inhibition percentage. Summed up:
as §1

A further experiment has as its system OVCAR-4. The conditions noted are these: Homo sapiens; OVCAR-4 (ovarian cancer), single dose 10^−5 M, 48 h; read-out: Growth inhibition percentage. Summed up: as §1
In the next experiment the test system is HOP-92. The conditions noted are these: Homo sapiens; HOP-92 (non-small cell lung cancer), single dose 10^−5 M, 48 h; read-out: Growth inhibition percentage. Summed up:
as §1

The subject of the next experiment is SK-MEL-2. The note with it: Homo sapiens; SK-MEL-2 (melanoma), single dose 10^−5 M, 48 h; read-out: Growth inhibition percentage. Summed up:
as §1

Another experiment concerns IGROV1. The note with it: Homo sapiens, IGROV-1; IGROV1 (ovarian cancer), single dose 10^−5 M, 48 h; read-out: Growth inhibition percentage. Summed up: as §1
A further experiment concerns SF-295. The note with it: Homo sapiens; SF-295 (CNS cancer), single dose 10^−5 M, 48 h; read-out: Growth inhibition percentage. The essentials: as §1
The test system of a further experiment is SK-MEL-5. The conditions noted are these: Homo sapiens; SK-MEL-5 (melanoma), single dose 10^−5 M, 48 h; read-out: Growth inhibition percentage. The essentials:
as §1

A further experiment relates to HL-60(TB). The conditions noted are these: Homo sapiens; HL-60(TB) (leukemia), single dose 10^−5 M, 48 h; read-out: Growth inhibition percentage. Summed up:
as §1

For the next experiment, the system named is COLO 205. The note with it: Homo sapiens, COLO 205, 48 h; read-out: Growth inhibition percentage. Summed up: as §1
The next experiment has as its system BT-549. The conditions noted are these: Homo sapiens; BT-549 (breast cancer), single dose 10^−5 M, 48 h; read-out: Growth inhibition percentage. Summed up: as §1
In the next experiment the test system is UO-31. The conditions noted are these: Homo sapiens; UO-31 (renal cancer), single dose 10^−5 M, 48 h; read-out: Growth inhibition percentage. Summed up: as §1
For another experiment, the system named is DU-145. The conditions noted are these: Homo sapiens; DU-145 (prostate cancer), single dose 10^−5 M, 48 h; read-out: Growth inhibition percentage. Summed up: as §1
The test system of the next experiment is HCC-2998. The conditions noted are these: Homo sapiens; HCC-2998 (colon cancer), single dose 10^−5 M, 48 h; read-out: Growth inhibition percentage. Summed up:
as §1

Take `Cc1nn(-c2ccc(F)cc2)c2ncnc(Nc3ccc(F)c(Cl)c3)c12` [Compound 7d, N-(3-Chloro-4-fluorophenyl)-1–(4-fluorophenyl)-3-methyl-1H-pyrazolo[3,4-d] pyrimidin-4-amine]: the inhibition at 10 µM in the experiment with RXF 393 was -0.39%; with SF-268 it was 3.94%; with HT29, 14.4%; with SW-620, 11.1%; in the experiment with NCI-H460, 58.5%; with SR it was 25.4%. For the same compound, the inhibition at 10 µM amounted to 0.7% in the experiment with CCRF-CEM; 7.53% in the experiment with NCI-H23; 60.4% with ACHN; 53.1% with OVCAR-4; 22.8% in the experiment on HOP-92; 2.61% with SK-MEL-2. Besides, the inhibition at 10 µM with IGROV1 was 27.6%; with SF-295 it was 40%; in the experiment on SK-MEL-5, -0.44%; in the experiment on HL-60(TB), 15%; in the experiment with COLO 205, -3.96%; in the experiment on BT-549, -4.84%. The inhibition at 10 µM in the experiment with UO-31 is 25.5%; in the experiment on DU-145 it was -3.13%; in the experiment on HCC-2998 it was 1.79%.

Take `Cc1nn(-c2ccc(F)cc2)c2nc[nH]c(=O)c12` [Compound 3, 1–(4-Fluorophenyl)-3-methyl-1H-pyrazolo[3,4-d]pyrimidin-4(5H)-one]: the inhibition at 10 µM was -11.4% with RXF 393; -1.71% in the experiment on SF-268; 3.83% in the experiment on HT29; -12.3% with SW-620; -9.62% with NCI-H460; -1.58% in the experiment on SR. Further, the inhibition at 10 µM in the experiment with CCRF-CEM was -1.13%; with NCI-H23, 4.09%; in the experiment on ACHN, -4.68%; in the experiment on OVCAR-4, -8.19%; with HOP-92, 10.3%; with SK-MEL-2, -5.1%. In addition, the inhibition at 10 µM in the experiment with IGROV1 was 5.29%; in the experiment with SF-295, -4.14%; in the experiment with SK-MEL-5, 0.31%; with HL-60(TB), 6.74%; in the experiment with COLO 205 it was -14.9%; in the experiment on BT-549, -3.59%. The inhibition at 10 µM in the experiment with UO-31 is 11.7%; with DU-145, -6.51%; with HCC-2998, -2.16%.

In the case of `Cc1nn(-c2ccc(F)cc2)c2ncnc(Cl)c12` [Compound 6, 4-Chloro-1–(4-fluorophenyl)-3-methyl-1H-pyrazolo[3,4-d]pyrimidine], the inhibition at 10 µM with RXF 393 is -3.61%; with SF-268, -1.16%; with HT29 it was 9.55%; in the experiment on SW-620, -2.88%; in the experiment on NCI-H460, -0.07%; in the experiment on SR, 14.4%. Further, the inhibition at 10 µM in the experiment with CCRF-CEM was 1.47%; with NCI-H23 it was 7.86%; in the experiment with ACHN, 4.11%; in the experiment on OVCAR-4, -0.8%; in the experiment on HOP-92, 7.91%; with SK-MEL-2, 11%. Also, the inhibition at 10 µM in the experiment with IGROV1 was 24.4%; in the experiment with SF-295 it was -4.11%; in the experiment with SK-MEL-5, 5.94%; in the experiment with HL-60(TB), 14%; in the experiment with COLO 205 it was -14.9%; with BT-549 it was -11.5%. The inhibition at 10 µM in the experiment with UO-31 was 11.8%; in the experiment on DU-145 it was 3.05%; in the experiment with HCC-2998, -5.66%.

`Cc1nn(-c2ccc(F)cc2)c2ncnc(N3CCOCC3)c12` [Compound 8a, 1–(4-Fluorophenyl)-3-methyl-4-morpholino-1H-pyrazolo[3,4-d]pyrimidine]: the inhibition at 10 µM with RXF 393 was -15.7%; with SF-268, -0.79%; in the experiment with HT29, 7.56%; in the experiment on SW-620, -4.76%; in the experiment with NCI-H460, -8.23%; with SR, 1.18%. Moreover, the inhibition at 10 µM is 2.31% in the experiment on CCRF-CEM; 0.28% in the experiment with NCI-H23; -10.3% with ACHN; -10.7% in the experiment on OVCAR-4; 9.27% in the experiment on HOP-92; 1.49% in the experiment with SK-MEL-2. In addition, the inhibition at 10 µM is -3.29% with IGROV1; 0.61% with SF-295; -0.67% with SK-MEL-5; 22.5% with HL-60(TB); -7.19% in the experiment on COLO 205; 3.96% with BT-549. The inhibition at 10 µM was 5.57% in the experiment on UO-31, -7.7% in the experiment on DU-145 and 2.41% in the experiment with HCC-2998.

Regarding `COc1ccc(N2CCN(c3ncnc4c3c(C)nn4-c3ccc(F)cc3)CC2)cc1` [Compound 8d, 1–(4-Fluorophenyl)-4–(4-(4-methoxyphenyl)piperazin-1-yl)-3-methyl-1H-pyrazolo[3,4-d]pyrimidine], the inhibition at 10 µM in the experiment with RXF 393 was -9.45%; in the experiment on SF-268, -2.9%; in the experiment on HT29 it was -1.26%; with SW-620 it was -0.63%; in the experiment with NCI-H460 it was -4.87%; in the experiment on SR, 8.97%. The inhibition at 10 µM was 0.86% in the experiment with CCRF-CEM; 9.95% in the experiment on NCI-H23; -0.34% in the experiment on ACHN; -1.77% in the experiment on OVCAR-4; 4.73% in the experiment with HOP-92; -1.69% in the experiment on SK-MEL-2. For the same compound, the inhibition at 10 µM in the experiment with IGROV1 was 9.45%; with SF-295 it was -2.4%; in the experiment on SK-MEL-5, -1.01%; in the experiment on HL-60(TB), 11.8%; with COLO 205, -7.56%; in the experiment on BT-549, 2.13%. In addition, the inhibition at 10 µM in the experiment on UO-31 is 21.3%; in the experiment with DU-145, -11.2%; in the experiment with HCC-2998, 3.59%.

In the case of `Cc1nn(-c2ccc(F)cc2)c2nc(N)nc(N)c12` [Compound 5, 1–(4-Fluorophenyl)-3-methyl-1H-pyrazolo[3,4-d]pyrimidine-4,6-diamine], the inhibition at 10 µM in the experiment with RXF 393 was -13%; in the experiment with SF-268, -2.3%; in the experiment on HT29, -6.5%; in the experiment with SW-620, -16.8%; with NCI-H460 it was -18.8%; with SR, -1.68%. The inhibition at 10 µM in the experiment with CCRF-CEM is -16.8%; in the experiment with NCI-H23, 11.8%; in the experiment on ACHN, -3.79%; in the experiment on OVCAR-4, 1.28%; in the experiment on HOP-92, 1.64%; in the experiment with SK-MEL-2 it was 3.86%. The inhibition at 10 µM in the experiment on IGROV1 is 6.71%; in the experiment on SF-295, -1.89%; in the experiment with SK-MEL-5, 0.86%; in the experiment with HL-60(TB) it was 8.85%; with COLO 205, -13.5%; with BT-549, -17.4%. Besides, the figures for the inhibition at 10 µM in the experiment with UO-31, in the experiment with DU-145 and in the experiment with HCC-2998 were 14.2%, -9.51% and 3.79%, respectively.
